This is an account of results in patent publication US8609860B2, “Acid-labile trigger units” (KTB Tumorforschungsgesellschaft mbH, priority 2009, dated 2013).

The conditions of series [1]: buffer.
Method: (§1) Half-lives of imine hydrolysis are determined by measuring the decrease of the concentration of the imine and/or the increase of the concentration of the hydrolysis products e.g. by fluorescence methods, HPLC, infrared spectroscopy and/or NMR spectroscopy.
(§2) For example, in the case of compounds comprising above groups Ar and the fluorescent dye AMC (cf. FIG. 3), half-lives of imine hydrolysis are determined by measuring the increase in fluorescence that corresponds to the release of AMC from the model compounds.
(§3) • 200 μL solution per well; • Wavelength: λex=390 nm, λem=460 nm; • Temperature: 37° C.
Series [2] in a line: Determination of half-lives for the imine hydrolysis in model compounds (AMC release, fluorescence).
Method: as §1, §2, §3

As to “4-(Perfluorobenzylideneamino)benzyl 4-methylcoumarin-7-ylcarbamate [Compound 6]”, in series [1] (pH 5), the “t1/2 pH 5.0 (half-life of imine hydrolysis)” value was 173 min. Further, in series [1] (pH 7.4), the “t1/2 pH 7.4 (half-life of imine hydrolysis)” value is 365 h.
Broadly, the half-life is the time needed for the level to fall by half in the phase considered. High values mean slow loss, low ones fast loss. Consider `Cc1cc(=O)oc2cc(NC(=O)OCc3ccc(N=Cc4ccccc4)cc3)ccc12` [Compound 4, 4-(Benzylideneamino)benzyl 4-methylcoumarin-7-ylcarbamate], for which the half-life in series [2] (acetate buffer, pH 5) is 0.567 h; in series [2] (phosphate buffer, pH 7.4), 8 h.
The matching figures for `Cc1cc(=O)oc2cc(NC(=O)OCc3ccc(N=Cc4c(F)c(F)cc(F)c4F)cc3)ccc12` [Compound 5, 4-(2,3,5,6-Tetrafluorobenzylideneamino)benzyl 4-methylcoumarin-7-ylcarbamate]: 0.567 h and 89 h.
